This note sets out measurements from patent US11478493B2, “Fabrication and application of a hetero-targeted nano-cocktail with traceless linkers” (priority 2019, dated 2022).

In the experiment the test system is SKOV-3 cells. The experiment in a line: Cytotoxicity assay (MTT) against SKOV-3 cells. Particulars: SKOV-3, 72 hours. It is filed as cell-based, Human. The protocol: Human ovarian cancer cells, SKOV-3 and SKOV-3/Luc cells, were cultured in GIBCO™ DMEM supplemented with 10% FBS, 100 units/mL penicillin, and 100 μg/mL streptomycin at 37° C. in […] culture flasks under a humidified atmosphere of 5% CO2. Cells were sub-cultured when the cell confluence reached ˜80%.
The anticancer activities of polymer nanogels against SKOV-3 cells were evaluated by MTT assay. Cells were seeded in 96-well plates at a density of 5,000 cells/well for 24 hours prior to the test at 37° C. with 5% CO2. Then the cells were treated with varying concentrations of PTX/DOX or polymer nanogels in fresh medium and further incubated for 72 hours. In the control group, cells were allowed to grow without any treatment. After that, the medium was replaced with 100 μL fresh medium containing MTT reagent (final concentration 1 mg/mL) and cells were further incubated for 4 hours. The purple MTT crystal was dissolved with 100 μL MTT stop solution and the optical density at 595 nm was recorded on a microplate reader (ELx808™ Absorbance Microplace Reader, Bio-Tech Instrument, Inc.).

`COc1cccc2c1C(=O)c1c(O)c3c(c(O)c1C2=O)C[C@@](O)(C(=O)CO)C[C@@H]3O[C@H]1C[C@H](N)[C@H](O)[C@H](C)O1` [DOX, doxorubicin]: the midpoint of inhibition (DOX, PPD and PPDA nanogels), the IC50, lay at 582 nM. `CC(=O)O[C@H]1C(=O)[C@@]2(C)[C@H]([C@H](OC(=O)c3ccccc3)[C@]3(O)C[C@H](OC(=O)[C@H](O)[C@@H](NC(=O)c4ccccc4)c4ccccc4)C(C)=C1C3(C)C)[C@]1(OC(C)=O)CO[C@@H]1C[C@@H]2O` [PTX, paclitaxel]: the IC50 (as a rule, the midpoint of a concentration-inhibition curve) (Homo sapiens, SK-OV-3, PTX, PPP and PPPM nanogels) stood at 30.6 nM.
